Earlier results, collected in patent US20090048319A1, “Method of Using a Micronutrient as Safener for a Triazole for Controlling Harmful Fungi” (priority 2006, published 2009).

Test system: wheat
Details: in vivo

CC1(C)CC/C(=C\c2ccc(Cl)cc2)C1(O)Cn1cncn1 (stereo not shown) [triticonazole, (5E)-5-[(4-chlorophenyl)methylene]-2,2-dimethyl-1-(1H-1,2,4-triazol-1-ylmethyl)cyclopentanol]
negative effect on plant growth: strongly reduced longitudinal growth
